# Measurements: patent publication US20100179225A1, “POI Prevention” (CYTOKINE PHARMASCIENCES, INC., priority 2008, published 2010)
# Tested on: C57BL/6J mice
# Test: Anastomotic wound healing (hydroxyproline content, bursting pressure), mouse
# Assay type: in vivo
# Conditions: 5 mg/kg i.v. 90 minutes before transection; POD 2, 5 and 10
# Procedure: C57BL/6J mice were treated with 0 mg/kg (placebo) or 5 mg/kg CNI-1493 90 minutes before colonic transection followed by an anastomosis with 8-10 interrupted polypropylene 8.0 sutures. On postoperative days (POD) 2, 5 and 10 anastomotic tissue was investigated for disturbances of wound healing by measurement of hydroxyproline content and bursting pressure.
# Hydroxyproline content was determined from an 1 cm perianastomotic region as described before (Woessner J. F., Jr. The determination of hydroxyproline in tissue and protein samples containing small proportions of this imino acid. Arch Biochem Biophys 1961; 93:440-447). Results were normalized as micrograms of hydroxyproline per gram tissue.
# Anastomotic bursting pressure (ABP) was measured directly after sacrifice and sampling a 3 cm colonic segment including the anastomotic site. The anastomotic specimen was cleared from feces and ligated twice at the distal end using a 6-0 polyglactin (Vicryl™, Ethicon, Belgium) suture. An 18 G arterial catheter (Vygon, France) was inserted intraluminally within the specimen at the proximal end and two stay sutures were tied to prevent leakage. […] The intraluminal pressure (mmHg) was measured and recorded using a pressure transducer with an amplifier and recorded by the Biopac A/D systems (Biopac Systems, Goleta, USA). […]
compound,measurement,value
C/C(=N\N=C(N)N)c1cc(NC(=O)CCCCCCCCC(=O)Nc2cc(/C(C)=N/N=C(N)N)cc(/C(C)=N/N=C(N)N)c2)cc(/C(C)=N/N=C(N)N)c1.Cl.Cl.Cl.Cl [CNI-1493],anastomotic bursting pressure vs placebo,did not differ at any time
same,anastomotic hydroxyproline content vs placebo,did not differ at any time
